Source: ChEMBL document CHEMBL3046521, “Synthesis and antitumor activity of (4-hydroxyphenyl)[5-substituted alkyl/aryl)-2-thioxo-1,3,4-thiadiazol-3-yl]methanone and [(3,4-disubstituted)-1,3-thiazol-2ylidene]-4-hydroxybenzohydrazide” (2011)

How the values were obtained:
Assay type in all cases: functional
SW-620 = assay: Cytotoxicity against Homo sapiens (human) SW620 cells after 48 hr by sulforhodamine B assay; conditions: SW-620, 48 h
[1] = Cytotoxicity against Homo sapiens (human) […] cells after 48 hr by sulforhodamine B assay
TK-10 = assay: Cytotoxicity against Homo sapiens (human) TK10 cells after 48 hr by sulforhodamine B assay; conditions: TK-10, 48 h
COLO 205 = assay: Cytotoxicity against Homo sapiens (human) COLO205 cells after 48 hr by sulforhodamine B assay; conditions: COLO 205, 48 h
SK-MEL-5 [2] = assay: Anticancer activity in Homo sapiens (human) SK-MEL-5 cells assessed as cell growth at 10^-5 M after 48 hr by SRB assay; conditions: SK-MEL-5, 48 h, read-out: Activity
CCRF-CEM = assay: Cytotoxicity against Homo sapiens (human) CCRF-CEM cells after 48 hr by sulforhodamine B assay
DU-145 = assay: Cytotoxicity against Homo sapiens (human) DU145 cells after 48 hr by sulforhodamine B assay; conditions: DU-145, 48 h
UO-31 = assay: Cytotoxicity against Homo sapiens (human) UO31 cells after 48 hr by sulforhodamine B assay; conditions: UO-31, 48 h
M14 = assay: Cytotoxicity against Homo sapiens (human) M14 cells after 48 hr by sulforhodamine B assay; conditions: M14, 48 h
IGROV-1 = assay: Cytotoxicity against Homo sapiens (human) IGROV1 cells after 48 hr by sulforhodamine B assay; conditions: IGROV-1, 48 h
HCT-15 = assay: Cytotoxicity against Homo sapiens (human) HCT15 cells after 48 hr by sulforhodamine B assay; conditions: HCT-15, 48 h
SF-295 = assay: Cytotoxicity against Homo sapiens (human) SF295 cells after 48 hr by sulforhodamine B assay; conditions: SF-295, 48 h
HOP-62 = assay: Cytotoxicity against Homo sapiens (human) HOP62 cells after 48 hr by sulforhodamine B assay; conditions: HOP-62, 48 h
UACC-62 = assay: Cytotoxicity against Homo sapiens (human) UACC62 cells after 48 hr by sulforhodamine B assay; conditions: UACC-62, 48 h
K562 = assay: Cytotoxicity against Homo sapiens (human) K562 cells after 48 hr by sulforhodamine B assay; conditions: K562, 48 h
ACHN = assay: Cytotoxicity against Homo sapiens (human) ACHN cells after 48 hr by sulforhodamine B assay
HT-29 = assay: Cytotoxicity against Homo sapiens (human) HT-29 cells after 48 hr by sulforhodamine B assay; conditions: HT-29, 48 h
Malme-3M = assay: Cytotoxicity against Homo sapiens (human) MALME-3M cells after 48 hr by sulforhodamine B assay
SK-MEL-28 = assay: Cytotoxicity against Homo sapiens (human) SK-MEL-28 cells after 48 hr by sulforhodamine B assay; conditions: SK-MEL-28, 48 h
SK-MEL-5 [3] = assay: Cytotoxicity against Homo sapiens (human) SK-MEL-5 cells after 48 hr by sulforhodamine B assay; conditions: SK-MEL-5, 48 h
Hs-578T = assay: Cytotoxicity against Homo sapiens (human) Hs 578T cells after 48 hr by sulforhodamine B assay
OVCAR-3 = assay: Cytotoxicity against Homo sapiens (human) OVCAR3 cells after 48 hr by sulforhodamine B assay; conditions: OVCAR-3, 48 h
MDA-MB-231 = assay: Cytotoxicity against Homo sapiens (human) MDA-MB-231 cells after 48 hr by sulforhodamine B assay; conditions: MDA-MB-231, 48 h
SNB-75 = assay: Cytotoxicity against Homo sapiens (human) SNB75 cells after 48 hr by sulforhodamine B assay; conditions: SNB-75, 48 h
SK-OV-3 = assay: Cytotoxicity against Homo sapiens (human) SKOV3 cells after 48 hr by sulforhodamine B assay; conditions: SK-OV-3, 48 h
UACC-257 = assay: Cytotoxicity against Homo sapiens (human) UACC257 cells after 48 hr by sulforhodamine B assay; conditions: UACC-257, 48 h
A549 = assay: Cytotoxicity against Homo sapiens (human) A549 cells after 48 hr by sulforhodamine B assay; conditions: A549, 48 h
NCI-H23 = assay: Cytotoxicity against Homo sapiens (human) NCI-H23 cells after 48 hr by sulforhodamine B assay; conditions: NCI-H23, 48 h
MDA-MB-468 = assay: Cytotoxicity against Homo sapiens (human) MDA-MB-468 cells after 48 hr by sulforhodamine B assay; conditions: MDA-MB-468, 48 h

## Cc1ccc(-c2cs/c(=N\NC(=O)c3ccc(O)cc3)n2-c2c(C)cccc2C)cc1
SW-620
  GI50: 28.8 µM
  LC50: > 100 µM
SW-620; read-out: pTGI (converted)
  TGI: > 100 µM
[1]
  GI50: 20 µM
  LC50: > 100 µM
[1]; read-out: pTGI (converted)
  TGI: > 100 µM
TK-10
  GI50: 19.1 µM
  LC50: > 100 µM
TK-10; read-out: pTGI (converted)
  TGI: 83.2 µM
COLO 205
  GI50: 16.6 µM
  LC50: > 100 µM
COLO 205; read-out: pTGI (converted)
  TGI: 66.1 µM
SK-MEL-5 [2]
  growth at 10 µM: 5.18%
CCRF-CEM
  GI50: 33.1 µM
  LC50: > 100 µM
CCRF-CEM; read-out: pTGI
  TGI: > 100 µM
DU-145
  GI50: 28.2 µM
  LC50: > 100 µM
DU-145; read-out: pTGI (converted)
  TGI: > 100 µM
UO-31
  GI50: 9.55 µM
  LC50: > 100 µM
UO-31; read-out: pTGI
  TGI: > 100 µM
M14
  GI50: 21.4 µM
  LC50: > 100 µM
M14; read-out: pTGI (converted)
  TGI: 72.4 µM
IGROV-1
  GI50: 20 µM
  LC50: > 100 µM
IGROV-1; read-out: pTGI (converted)
  TGI: > 100 µM
HCT-15
  GI50: 17 µM
  LC50 (concentration killing 50% of cells): > 100 µM
HCT-15; read-out: pTGI (converted)
  TGI: > 100 µM
SF-295
  GI50: 20.9 µM
  LC50: > 100 µM
SF-295; read-out: pTGI (converted)
  TGI: 79.4 µM
HOP-62
  GI50: 23.4 µM
  LC50: > 100 µM
HOP-62; read-out: pTGI (converted)
  TGI: 74.1 µM
UACC-62
  GI50: 16.6 µM
  LC50: > 100 µM
UACC-62; read-out: pTGI (converted)
  TGI: 95.5 µM
K562
  GI50: 11.5 µM
  LC50: > 100 µM
K562; read-out: pTGI (converted)
  TGI: 79.4 µM
ACHN
  GI50: 20.9 µM
  LC50: > 100 µM
ACHN; read-out: pTGI (converted)
  TGI: > 100 µM
HT-29
  GI50: 17.4 µM
  LC50: 83.2 µM
HT-29; read-out: pTGI (converted)
  TGI: 38 µM
Malme-3M
  GI50: 22.4 µM
  LC50: > 100 µM
Malme-3M; read-out: pTGI (converted)
  TGI: 85.1 µM
SK-MEL-28
  GI50: 30.9 µM
  LC50 (concentration killing 50% of cells): > 100 µM
SK-MEL-28; read-out: pTGI (converted)
  TGI: 83.2 µM
SK-MEL-5 [3]
  GI50: 14.5 µM
  LC50: 61.7 µM
SK-MEL-5 [3]; read-out: pTGI (converted)
  TGI: 30.2 µM
Hs-578T
  GI50: 23.4 µM
  LC50: > 100 µM
Hs-578T; read-out: pTGI (converted)
  TGI: 91.2 µM
OVCAR-3
  GI50: 17.8 µM
  LC50: > 100 µM
OVCAR-3; read-out: pTGI (converted)
  TGI: 47.9 µM
MDA-MB-231
  GI50: 18.2 µM
  LC50: > 100 µM
MDA-MB-231; read-out: pTGI (converted)
  TGI: > 100 µM
SNB-75
  GI50: 24.5 µM
  LC50: > 100 µM
SNB-75; read-out: pTGI (converted)
  TGI: > 100 µM
SK-OV-3
  GI50: 30.9 µM
  LC50: > 100 µM
SK-OV-3; read-out: pTGI (converted)
  TGI: > 100 µM
UACC-257
  GI50: 42.7 µM
  LC50: > 100 µM
UACC-257; read-out: pTGI (converted)
  TGI: > 100 µM
A549
  GI50: 23.4 µM
  LC50: > 100 µM
A549; read-out: pTGI (converted)
  TGI: > 100 µM
NCI-H23
  GI50: 25.7 µM
  LC50: > 100 µM
NCI-H23; read-out: pTGI (converted)
  TGI: > 100 µM
MDA-MB-468
  GI50: 12 µM
  LC50: > 100 µM
MDA-MB-468; read-out: pTGI (converted)
  TGI: > 100 µM
